Laboratory results published in patent US20070128217A1 (priority 2003, published 2007).

Tests used:
[1] = test system: recombinant human anti-SARS-CoV antibody 03-018; assay type: binding; design: Binding of antibody 03-018 to linear peptides of the N protein of SARS-CoV Urbani / Binding of antibody 03-018 to looped/cyclic peptides of the N protein of SARS-CoV Urbani: unit not given here
[2] = test system: rabbit serum obtained by immunizing a rabbit with the SARS-CoV strain Frankfurt 1; assay type: binding; design: Binding of a rabbit serum to linear peptides / Binding of a rabbit serum to looped peptides / Rabbit serum linear peptides / Rabbit serum looped peptides / Binding of a rabbit serum to linear peptides of protein N of SARS-CoV Urbani (Rabbit serum linear peptides) / Binding of a rabbit serum to looped/cyclic peptides of protein N of SARS-CoV Urbani (Rabbit serum looped peptides): unit not given here
[3] = test system: antibodies in sera from SARS patients (sera 1a, 1b, 2, 6, 37, 62, London, SARS-yellow, SARS-green); assay type: binding, human; design: Binding of serum 6 to linear peptides of protein X1 of SARS-CoV Urbani / Binding of serum 37 to linear peptides of protein X1 of SARS-CoV Urbani / Binding of serum 6 to looped/cyclic peptide (PEPSCAN-ELISA) / Binding of serum 37 to looped/cyclic peptide (PEPSCAN-ELISA) / Binding of serum 37 to looped/cyclic peptides of protein X1 of SARS-CoV Urbani / Binding of serum 6 to linear peptides of protein X2 / Binding of serum 37 to linear peptides of protein X2 / Binding of serum 37 to looped/cyclic peptides of protein X2 of SARS-CoV Urbani / Binding of serum 6 to linear peptides of protein M of SARS-CoV Urbani / Binding of serum 37 to linear peptides of protein M of SARS-CoV Urbani / Binding of serum 6 to looped/cyclic peptides of protein M of SARS-CoV Urbani / Binding of serum 37 to looped/cyclic peptides of protein M of SARS-CoV Urbani / Binding of serum 6 to linear peptides of protein X3 of SARS-CoV Urbani / Binding of serum 37 to linear peptides of protein X3 of SARS-CoV Urbani / Binding of serum 37 to looped/cyclic peptides of protein X3 of SARS-CoV Urbani / Binding of serum 6 to linear peptides of protein X4 of SARS-CoV Urbani / Binding of serum 37 to linear peptides of protein X4 of SARS-CoV Urbani / Binding of serum 37 to looped/cyclic peptides of protein X4 of SARS-CoV Urbani / Binding of serum 6 to linear peptides of protein X5 of SARS-CoV Urbani / Binding of serum 37 to linear peptides of protein X5 of SARS-CoV Urbani / Binding of serum 37 to looped/cyclic peptides of protein X5 of SARS-CoV Urbani / Binding of serum 6 to linear peptides of protein N of SARS-CoV Urbani / Binding of serum 37 to linear peptides of protein N of SARS-CoV Urbani / Binding of serum 6 to linear peptide (PEPSCAN-ELISA) / Binding of serum 1a to looped/cyclic peptides of protein N of SARS-CoV Urbani / Binding of serum 1b to looped/cyclic peptides of protein N of SARS-CoV Urbani / Binding of serum 2 to looped/cyclic peptides of protein N of SARS-CoV Urbani / Binding of serum 6 to looped/cyclic peptides of protein N of SARS-CoV Urbani / Binding of serum 37 to looped/cyclic peptides of protein N of SARS-CoV Urbani / Binding of serum 62 to looped/cyclic peptides of protein N of SARS-CoV Urbani / Binding of serum London to looped/cyclic peptides of protein N of SARS-CoV Urbani / Binding of serum SARS-green to looped/cyclic peptides of protein N of SARS-CoV Urbani: unit not given here
[4] = test system: control sera (pooled serum of ten healthy LUMC hospital workers; commercial negative donor pooled serum from the Dutch bloodbank); assay type: binding, human; design: Binding of Control serum LUMC to linear peptides / Binding of Control serum Blood-bank to linear peptides / Binding of Control serum LUMC to looped peptides / Binding of Control Serum Blood-Bank to Looped peptides / Binding of Control serum LUMC to linear peptides of the protein M of SARS-CoV Urbani / Binding of Control serum Blood-bank to linear peptides of the protein M of SARS-CoV Urbani / Binding of Control serum LUMC to looped peptides of the protein M of SARS-CoV Urbani / Binding of Control Serum Blood-Bank to Looped peptides of the protein M of SARS-CoV Urbani: unit not given here

Sequence | Binding of antibody 03-018 to linear peptides of the N protein of SARS-CoV Urbani [1] | Binding of antibody 03-018 to looped/cyclic peptides of the N protein of SARS-CoV Urbani [1] | Binding of a rabbit serum to linear peptides of protein N of SARS-CoV Urbani (Rabbit serum linear peptides) [2] | Binding of a rabbit serum to looped/cyclic peptides of protein N of SARS-CoV Urbani (Rabbit serum looped peptides) [2] | Binding of serum 1a to linear peptide (PEPSCAN-ELISA) [3] | Binding of serum 1a to looped/cyclic peptides of protein N of SARS-CoV Urbani [3] | Binding of serum 1b to linear peptide (PEPSCAN-ELISA) [3] | Binding of serum 1b to looped/cyclic peptides of protein N of SARS-CoV Urbani [3] | Binding of serum 2 to linear peptide (PEPSCAN-ELISA) [3] | Binding of serum 2 to looped/cyclic peptides of protein N of SARS-CoV Urbani [3] | Binding of serum 6 to looped/cyclic peptides of protein N of SARS-CoV Urbani [3] | Binding of serum 37 to looped/cyclic peptides of protein N of SARS-CoV Urbani [3] | Binding of serum 62 to looped/cyclic peptides of protein N of SARS-CoV Urbani [3] | Binding of serum London to looped/cyclic peptides of protein N of SARS-CoV Urbani [3] | Binding of serum SARS-green to looped/cyclic peptides of protein N of SARS-CoV Urbani [3] | Binding of serum SARS-yellow to looped/cyclic peptides of protein N of SARS-CoV Urbani [3] | Binding of Control Serum Blood-Bank to Looped peptides [4] | Binding of Control serum Blood-bank to linear peptides [4] | Binding of Control serum LUMC to linear peptides [4] | Binding of Control serum LUMC to looped peptides [4] | also measured
GGETALALLLLDRLN | 0.1 | 0.2 | 0.1 | 0.6 | 0.2 | 0.4 | 0.1 | 0.3 | 0.2 | 0.5 | 0.2 | 0.7 | 0.7 | 0.5 | 0.3 | 0.7 | 0.8 | 0.7 | 0.6 | 0.8 | Binding of serum 6 to linear peptide (PEPSCAN-ELISA) [3]: 0.2; Binding of serum 37 to linear peptide (PEPSCAN-ELISA) [3]: 0.6; Binding of serum 62 to linear peptide (PEPSCAN-ELISA) [3]: 0.6; Binding of serum London to linear peptide (PEPSCAN-ELISA) [3]: 0.4; Binding of serum SARS-green to linear peptide (PEPSCAN-ELISA) [3]: 0.4; Binding of serum SARS-yellow to linear peptide (PEPSCAN-ELISA) [3]: 0.5
SRQLQNSMSGASADS | 0.1 | 0.2 | 0.5 | 0.6 |  | 0.2 |  | 0.1 |  | 0.3 | 0.1 | 0.4 | 0.3 | 0.2 | 0.3 | 0.2 |  |  |  |  | Binding of serum 1a to linear peptides of protein N of SARS-CoV Urbani [3]: 0.2; Binding of serum 1b to linear peptides of protein N of SARS-CoV Urbani [3]: 0.1; Binding of serum 2 to linear peptides of protein N of SARS-CoV Urbani [3]: 0.2; Binding of serum 6 to linear peptides of protein N of SARS-CoV Urbani [3]: 0.2; Binding of serum 37 to linear peptides of protein N of SARS-CoV Urbani [3]: 0.8; Binding of serum 62 to linear peptides of protein N of SARS-CoV Urbani [3]: 0.6; Binding of serum London to linear peptides of protein N of SARS-CoV Urbani [3]: 0.6; Binding of serum SARS-green to linear peptides of protein N of SARS-CoV Urbani [3]: 0.5; Binding of serum SARS-yellow to linear peptides of protein N of SARS-CoV Urbani [3]: 0.5; Control Serum Blood-Bank Looped peptides [4]: 0.5; Control serum Blood-bank linear peptides [4]: 0.8; Control serum LUMC linear peptides [4]: 0.7; Control serum LUMC looped peptides [4]: 0.3
LLLDRLNQLESKVSG | 0.1 | 0.2 | 0.2 | 0.2 | 0.3 | 0.3 | 0.2 | 0.1 | 0.4 | 0.4 | 0.1 | 0.5 | 0.3 | 0.3 | 0.6 | 0.2 | 0.5 | 0.8 | 0.9 | 0.5 | Binding of serum 6 to linear peptide (PEPSCAN-ELISA) [3]: 0.2; Binding of serum 37 to linear peptide (PEPSCAN-ELISA) [3]: 0.8; Binding of serum 62 to linear peptide (PEPSCAN-ELISA) [3]: 0.6; Binding of serum London to linear peptide (PEPSCAN-ELISA) [3]: 0.9; Binding of serum SARS-green to linear peptide (PEPSCAN-ELISA) [3]: 1.1; Binding of serum SARS-yellow to linear peptide (PEPSCAN-ELISA) [3]: 0.7
TQHGKEELRFPRGQG | 0.1 | 0.2 | 0.1 | 0.3 |  | 0.3 |  | 0.2 |  | 0.3 | 0.2 | 0.5 | 0.3 | 0.4 | 0.2 | 0.4 | 0.6 | 0.9 | 0.8 | 0.6 | Binding of serum 1a to linear peptides of protein N of SARS-CoV Urbani [3]: 0.3; Binding of serum 1b to linear peptides of protein N of SARS-CoV Urbani [3]: 0.2; Binding of serum 2 to linear peptides of protein N of SARS-CoV Urbani [3]: 0.3; Binding of serum 6 to linear peptides of protein N of SARS-CoV Urbani [3]: 0.2; Binding of serum 37 to linear peptides of protein N of SARS-CoV Urbani [3]: 0.7; Binding of serum 62 to linear peptides of protein N of SARS-CoV Urbani [3]: 0.8; Binding of serum London to linear peptides of protein N of SARS-CoV Urbani [3]: 0.5; Binding of serum SARS-green to linear peptides of protein N of SARS-CoV Urbani [3]: 0.4; Binding of serum SARS-yellow to linear peptides of protein N of SARS-CoV Urbani [3]: 0.6
